Data taken from BindingDB's records for doi:10.1021/bi051886s (Johnson & Johnson Pharmaceutical, 2006).

Columns and labels:
Assay in all cases: Protease Inhibition Assay
[1] = biological target: T1, Dimer of Gag-Pol polyprotein [490-588,L523I,E525D,M526I,I544V,L553H,H559K,V572F,L579M] (Human immunodeficiency virus 1, UniProt P05959, E525D/H559K/I544V/L523I/L553H/L579M/M526I/V572F)
T1 construct: 490-588

[2] = biological target: T2, Dimer of Gag-Pol polyprotein [490-588,L523I,E525D,M526I,I544V,L553H,H559K,L579M] (Human immunodeficiency virus 1, UniProt P05959, E525D/H559K/I544V/L523I/L553H/L579M/M526I)
T2 construct: 490-588

[3] = biological target: T3, Dimer of Gag-Pol polyprotein [501-599,V583F] (Human immunodeficiency virus 1, UniProt P03367, V583F); details: pH 4.7; 37 °C
T3 construct: 501-599

[4] = biological target: T4, Dimer of Gag-Pol polyprotein [482-580,I502K,I528M,T553A] (Human immunodeficiency virus 1, UniProt P24740, I502K/I528M/T553A); details: pH 4.7; 37 °C
T4 construct: 482-580

[5] = biological target: T5, Dimer of Gag-Pol polyprotein [501-599] (Human immunodeficiency virus 1, UniProt P03367); details: pH 4.7; 37 °C
T5 construct: 501-599

[6] = biological target: T6, Dimer of Gag-Pol polyprotein [482-580,I502K,I528M,T553A,V564F] (Human immunodeficiency virus 1, UniProt P24740, I502K/I528M/T553A/V564F)
T6 construct: 482-580

SMILES | Ki [1] [nM] | Ki [2] [nM] | Ki [3] [nM] | Ki [4] [nM] | Ki [5] [nM] | Ki [6] [nM]
Cc1cccc(C)c1OCC(=O)N[C@@H](Cc1ccccc1)[C@@H](O)C[C@H](Cc1ccccc1)NC(=O)[C@H](C(C)C)N1CCCNC1=O [(2S)-N-[(2S,4S,5S)-5-[2-(2,6-dimethylphenoxy)acetamido]-4-hydroxy-1,6-diphenylhexan-2-yl]-3-methyl-2-(2-oxo-1,3-diazinan-1-yl)butanamide] | 9 | 0.5 | 0.2 | 0.019 | 0.05 | 0.48
COC(=O)N[C@H](C(=O)N[C@@H](Cc1ccccc1)[C@@H](O)CN(Cc1ccc(-c2ccccn2)cc1)NC(=O)[C@@H](NC(=O)OC)C(C)(C)C)C(C)(C)C [CGP 73547] | 0.7 | 1.1 | 0.56 | 0.24 |  | 0.57
CC(C)(C)NC(=O)[C@@H]1CN(Cc2cccnc2)CCN1C[C@@H](O)C[C@@H](Cc1ccccc1)C(=O)N[C@H]1c2ccccc2C[C@H]1O [Crixivan] | 1620 | 42 |  | 6.9 |  | 108
CC(C)(C)NC(=O)[C@@H]1C[C@@H]2CCCC[C@@H]2CN1C[C@@H](O)[C@H](Cc1ccccc1)NC(=O)[C@H](CC(N)=O)NC(=O)c1ccc2ccccc2n1 [SQV] | 24 | 48 |  | 1.8 |  | 0.43
CC(C)CN(C[C@@H](O)[C@H](Cc1ccccc1)NC(=O)O[C@H]1CCOC1)S(=O)(=O)c1ccc(N)cc1 [VX-478] | 23 | 1.4 |  | 0.4 |  | 1.2
Cc1c(O)cccc1C(=O)N[C@@H](CSc1ccccc1)[C@H](O)CN1C[C@H]2CCCC[C@H]2C[C@H]1C(=O)NC(C)(C)C [Viracept] | 146 | 17 |  |  |  | 
